Like-named read-outs stand apart in the source and are kept apart here.
Columns and labels:
Sphaerotheca fuliginea = assay: Sphaerotheca test (cucumber)/protective; assay type: in vivo
Experimental: (§1) Solvent: 49 parts by weight of N,N-dimethylformamide
(§2) Emulsifier: 1 part by weight of alkylaryl polyglycol ether
(§3) To produce a suitable preparation of active compounds, 1 part by weight of active compound is mixed with the stated amounts of solvent and emulsifier, and the concentrate is diluted with water to the desired concentration.
To test for protective activity, young cucumber plants are sprayed with the active compound preparation at the stated application rate. 1 day after the treatment, the plants are inoculated with a spore suspension of Sphaerotheca fuliginea. The plants are then placed in a greenhouse at 70% rel. atmospheric humidity and a temperature of 23° C.
(§4) Evaluation is carried out 7 days after the inoculation. 0% means an efficacy which corresponds to that of the control, whereas an efficacy of 100% means that no infection is observed.

Pyrenophora teres = Pyrenophora teres test (barley)/protective; assay type: in vivo
Method in brief: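 Protective test: young barley plants sprayed at the stated rate with compound in DMF/alkylaryl polyglycol ether diluted with water, inoculated with P. teres spores 1 day later, kept 48 h at 100% rel. humidity and 22° C., then greenhouse at 80% and 20° C. Efficacy scored 7-9 days post-inoculation (0% = control, 100% = no infection).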

Alternaria solani = assay: Alternaria test (tomato)/protective; assay type: in vivo
Experimental: as §1, §2
To produce a suitable preparation of active compound, 1 part by weight of active compound is mixed with the stated amounts of solvent and emulsifier, and the concentrate is diluted with water to the desired concentration.
To test for protective activity, young tomato plants are sprayed with the active compound preparation at the stated application rate. 1 day after the treatment, the plants are inoculated with a spore suspension of Alternaria solani and then remain at 100% rel. humidity and 22° C. for 24 h. The plants then remain at 96% rel. atmospheric humidity and a temperature of 20° C.
as §4

Venturia inaequalis = assay: Venturia test (apple)/protective; assay type: in vivo; details: 100 ppm active compound, protective, evaluation 10 days after inoculation
Experimental: Solvents: 24.5 parts by weight of acetone • 24.5 parts by weight of dimethylacetamide Emulsifier: 1 part by weight of alkylaryl polyglycol ether
(§5) To produce a suitable preparation of active compound, 1 part by weight of active compound is mixed with the stated amounts of solvents and emulsifier, and the concentrate is diluted with water to the desired concentration.
(§6) To test for protective activity, young plants are sprayed with the active compound preparation at the stated application rate. After the spray coating has dried on, the plants are inoculated with an aqueous conidia suspension of the apple scab pathogen Venturia inaequalis and then remain in an incubation cabin at about 20° C. and 100% relative atmospheric humidity for 1 day.
(§7) The plants are then placed in a greenhouse at about 21° C. and a relative atmospheric humidity of about 90%.
(§8) Evaluation is carried out 10 days after the inoculation. 0% means an efficacy which corresponds to that of the control, whereas an efficacy of 100% means that no infection is observed.

Leptosphaeria nodorum = Leptosphaeria nodorum test (wheat)/protective; assay type: in vivo
Experimental: as §1, §2, §3
To test for protective activity, young wheat plants are sprayed with the active compound preparation at the stated application rate. 1 day after the treatment, the plants are inoculated with an aqueous spore suspension of Leptosphaeria nodorum and then remain at 100% rel. atmospheric humidity and 22° C. for 48 h. The plants are then placed in a greenhouse at 90% rel. atmospheric humidity and a temperature of 22° C.
Evaluation is carried out 7-9 days after the inoculation. 0% means an efficacy which corresponds to that of the control, whereas an efficacy of 100% means that no infection is observed.

[1] = log P determination by HPLC retention times (alkan-2-one calibration)
Phytophthora infestans = assay type: in vivo
Fusarium graminearum = assay: microbe, parasite or virus in culture; assay type: cell-based; details: for inhibition at 50 µM: Fusarium graminearum, 72 h, read-out: % inhibition of the fungal growth of Fusarium graminearum at 50 μM
DON/AcDON production = assay: microbe, parasite or virus in culture; assay type: cell-based, Fusarium graminearum; details: 7 days at 28° C.; for inhibition at 50 µM: Fusarium graminearum, 168 h
Botrytis cinerea = assay: Botrytis test (bean)/protective; assay type: in vivo; details: 100 ppm active compound, protective, evaluation 2 days after inoculation
Experimental: (§9) Solvents: 24.5 parts by weight of acetone
(§10) • 24.5 parts by weight of dimethylacetamide Emulsifier: 1 part by weight of alkylaryl polyglycol ether
as §5
To test for protective activity, young plants are sprayed with the active compound preparation at the stated application rate. After the spray coating has dried on, 2 small pieces of agar colonized by Botrytis cinerea are placed onto each leaf. The inoculated plants are placed in a dark chamber at about 20° C. and 100% relative atmospheric humidity.
2 days after the inoculation, the size of the infected areas on the leaves is evaluated. 0% means an efficacy which corresponds to that of the control, whereas an efficacy of 100% means that no infection is observed.

Uromyces appendiculatus = assay: Uromyces test (bean)/protective; assay type: in vivo; details: in vivo
Experimental: as §9, §10, §5
as §6, with “spore” for “conidia”, “bean rust” for “apple scab”, “Uromyces appendiculatus” for “Venturia inaequalis”
as §7, §8

[2] = 500 ppm active compound, cucumber, protective, evaluation 7 days after inoculation
[3] = 500 ppm active compound, barley, protective, evaluation 7-9 days after inoculation
[4] = 500 ppm active compound, tomato, protective, evaluation 7 days after inoculation
[5] = 500 ppm active compound, wheat, protective, evaluation 7-9 days after inoculation
[6] = log P(HCOOH), HCOOH, preparation examples in the text
[7] = log P, values marked [b] in Table 1
[8] = log P, values marked [a] in Table 1

Structure (SMILES)	efficacy in % (Venturia inaequalis) [%]	efficacy in % (Sphaerotheca fuliginea; in vivo) [%]	% inhibition of the fungal growth of Fusarium graminearum at 50 μM (Fusarium graminearum) [%]	efficacy in % (Pyrenophora teres; in vivo) [%]	% inhibition of DON/AcDON at 50 μM (DON/AcDON production) [%]	efficacy in % (Alternaria solani; in vivo) [%]	efficacy in % (Leptosphaeria nodorum; in vivo) [%]	efficacy in % (Phytophthora infestans; in vivo) [%]	efficacy in % (Botrytis cinerea) [%]	also measured
CC(C)Nc1cc(-c2c(-c3ccccc3)nn3c2CCC3)ccn1 [Example 70, 4-[2-(Phenyl)-5,6-dihydro-4H-pyrrolo[1,2-b]pyrazol-3-yl]-N-isopropylpyridine-2-amine]	100	–	–	–	–	–	–	–	–	efficacy in % (Sphaerotheca fuliginea; [2]): 94%; efficacy in % (Pyrenophora teres; [3]): 80%; efficacy in % (Alternaria solani; [4]): 90%; efficacy in % (Leptosphaeria nodorum; [5]): 90%; chromatographic logP [1, 6]: 1.21; chromatographic logP [1, 7]: 2.69; efficacy in % (Phytophthora infestans; [4]): 95%
c1ccc(-c2nn3c(c2-c2ccncc2)CCC3)cc1 [Example 10]	–	94	87	80	100	70	80	70	–	–
CC1CCc2c(-c3ccnc(NC(=O)C4CC4)c3)c(-c3ccc(F)cc3)nn21 (stereo not drawn) [Example 78]	100	100	–	95	–	–	100	–	100	efficacy in % (Uromyces appendiculatus): 94%
CC(=O)Nc1cc(-c2c(-c3cccs3)nn3c2CCCC3)ccn1 [Example 87]	–	95	–	90	–	80	70	90	100	efficacy in % (Uromyces appendiculatus): 93%
Clc1ccc(-c2nn3c(c2-c2ccncc2)CCC3)cc1 [Example 11]	–	88	92	70	100	–	70	80	–	–
c1csc(-c2nn3c(c2-c2ccncc2)CCCC3)c1 [Example 62]	–	–	35	95	100	94	78	80	–	–
c1ccc(-c2nn3c(c2-c2ccncc2)CCCC3)cc1 [Example 9]	95	86	100	94	99	100	95	90	93	–
CC1CCc2c(-c3ccncc3)c(-c3ccc(F)cc3)nn21 (stereo not drawn) [Example 74]	95	93	–	100	–	95	88	90	100	–
CC(C)Nc1cc(-c2c(-c3ccc(F)cc3)nn3c2CCC3)ccn1 [Example 52]	94	–	19	80	99	90	–	95	78	–
CCC(=O)Nc1cc(-c2c(-c3ccc(F)cc3)nn3c2CCOC3(C)C)ccn1 [Example 86]	95	100	–	100	–	90	70	–	100	efficacy in % (Uromyces appendiculatus): 95%
C[C@@H](O)C(=O)Nc1cc(-c2c(-c3ccsc3)nn3c2CCCC3)ccn1 [Example 66]	–	–	50	95	98	70	–	80	–	–
Nc1cc(-c2c(-c3ccc(F)cc3)nn3c2CCCC3)ccn1 [Example 3, 4-[2-(4-Fluorophenyl)-4,5,6,7-tetrahydropyrazolo[1,5-a]pyridin-3-yl]pyridine-2-amine]	–	–	–	–	–	–	–	–	–	inhibition at 50 µM (Fusarium graminearum): 30%; efficacy in % (Pyrenophora teres; [3]): 95%; inhibition at 50 µM (DON/AcDON production): 94%; efficacy in % (Alternaria solani; [4]): 95%; efficacy in % (Leptosphaeria nodorum; [5]): 89%; chromatographic logP [1, 6]: 1.21; chromatographic logP [1, 8]: 1.21; chromatographic logP [1, 7]: 2.05; efficacy in % (Phytophthora infestans; [4]): 90%
COC1CCCn2nc(-c3ccc(F)cc3)c(-c3ccncc3)c21 (stereo not drawn) [Example 85]	–	85	–	100	–	–	75	90	100	efficacy in % (Uromyces appendiculatus): 85%
O=C(Cc1ccccc1)Nc1cc(-c2c(-c3ccccc3)nn3c2CCCC3)ccn1 [Example 35]	95	–	–	78	–	94	90	80	96	–
CC(C)C(=O)Nc1cc(-c2c(-c3ccc(F)cc3)nn3c2CCOC3)ccn1 [Example 91]	95	100	–	95	–	90	78	–	100	efficacy in % (Uromyces appendiculatus): 95%
COC(=O)Nc1cc(-c2c(-c3ccsc3)nn3c2CCCC3)ccn1 [Example 67]	–	–	60	95	100	80	–	70	–	–
Fc1ccc(-c2nn3c(c2-c2ccnc(F)c2)CCC3)cc1 [Example 45]	–	–	21	95	100	95	–	90	–	–
Fc1ccc(-c2nn3c(c2-c2ccncc2)CCCC3)cc1 [Example 2, 2-(4-Fluorophenyl)-3-(pyridin-4-yl)-4,5,6,7-tetrahydropyrazolo[1,5-a]pyridine]	95	–	–	–	–	–	–	–	100	efficacy in % (Sphaerotheca fuliginea; [2]): 91%; inhibition at 50 µM (Fusarium graminearum): 99%; efficacy in % (Pyrenophora teres; [3]): 95%; inhibition at 50 µM (DON/AcDON production): 100%; efficacy in % (Alternaria solani; [4]): 94%; efficacy in % (Leptosphaeria nodorum; [5]): 80%; chromatographic logP [1, 6]: 1.03; chromatographic logP [1, 8]: 1.03; chromatographic logP [1, 7]: 2.43; efficacy in % (Phytophthora infestans; [4]): 94%
Cc1ccc(-c2nn3c(c2-c2ccncc2)CCC3)cc1 [Example 41]	–	–	100	95	98	70	–	70	–	–
Fc1ccc(-c2nn3c(c2-c2ccncc2)CCC3)cc1 [Example 7]	76	90	100	80	99	95	–	95	95	–
